# Where two headings read alike, the source gives them in different places.
# Legend:
# [1] = Oxipres stability test of DragoCalm: Avenanthramide B; details: before and after Oxipres treatment, additive 0.1 %
# Experimental: (§1) Stabilizers were presolved in DragoCalm® under stirring at room temperature or, if necessary at a temperature from 40 to 50° C. […] The DragoCalm® samples (15 g) were placed into the reaction vessel and were either exposed to 5 bars of oxygen for 24 hours at 70° C. using the Oxipres device.
# (§2) The evaluation of the samples, i.e. the determination of content of Avns was determined by HPLC (comparison before and after Oxipres treatment).
# (§3) The test procedure and the evaluation of the samples were carried out in the same manner as described above for Avenanthramide C.
# [2] = Oxipres accelerated stability test of DragoCalm: Avenanthramide C content by HPLC before and after treatment; details: for Degradation (%) of Avenanthramide C: DragoCalm, Oxipres 5 bars oxygen, 24 hours, 70° C.; for degradation inhibitory activity, ranking of single stabilizers: as demonstrated by the examples
# Experimental: The oxidative stability of the glycerol/water-based solution of an DragoCalm® extract as described below with different stabilizer was evaluated against a glycerol/water-based solution of an oat extract without stabilizer.
# The Oxipres device allows the determination of oxidative resistance (shelf life) of oils. The device is a modification of the bomb method according to ASTM D941, which is based on oxidation with oxygen. The test runs under elevated pressure and temperature, through which the degradation process is accelerated. During the test, the consumption of oxygen results in a pressure drop in the vessel. Decrease of pressure indicates more consumption of oxygen and higher oxidation of the test product.
# Thus, it is an accelerated stability test due to harder conditions such as temperature and pressure.
# as §1, §2
# The content of Avenanthramide C was determined by HPLC before and after Oxipres treatment.
# [3] = Color stability of DragoCalm before and after Oxipres treatment (L*a*b* system, Δb*); assay type: physicochemical; design: key: L*a*b* Δb* = b* change before vs after Oxipres; higher = more discolored; details: color difference before/after Oxipres treatment
# Experimental: (i.e. hydroxyacetophenone).
# Furthermore, the color of the DragoCalm® samples was measured before and after the Oxipres treatment by using the L*a*b* system (Lico 690). The b* value describes the discoloration in the yellowish/red/brownish area, the Δ b* value describes the difference of color before and after Oxipres treatment. The higher the Δ b* value the more discolorated is the test solution.
# [4] = during storage; cited from earlier work
# mast cell = details: through the interaction with the neurokinin-1 receptor; cited from earlier work
# [5] = 24 h, 0.1 %
# Experimental: as §1, §2, §3
# [6] = Oxipres stability test of DragoCalm: Avenanthramide L; details: before and after Oxipres treatment
# Experimental: as §1, §2, §3
# [7] = in DragoCalm after Oxipres treatment (5 bars oxygen, 24 hours, 70° C.), additive 0.10 %
# [8] = in DragoCalm before Oxipres treatment, additive 0.10 %
# [9] = in DragoCalm after Oxipres treatment (5 bars oxygen, 24 hours, 70° C.), additive 0.05 %
# [10] = in DragoCalm before Oxipres treatment, additive 0.05 %
Compound,"Avenanthramide C End (ppm) [2, 7]","Avenanthramide C Start (ppm) [2, 8]",Δb* ([3]; additive 0.10 %),also measured
CC(=O)c1ccc(O)cc1 [4-Hydroxyacetophenone],1 ppm,18 ppm,7.3,Degradation of Avenanthramide B (%) [1]: 18.5%; Degradation (%) of Avenanthramide C ([2]; additive 0.10 %): 94.4%
O=C1O[C@H]([C@@H](O)CO)C(O)=C1O [Ascorbic acid],,,,"degradation inhibitory activity, ranking of single stabilizers [2]: most effective single antioxidant; Avenanthramide C End (ppm) [2, 9]: 3 ppm; Avenanthramide C Start (ppm) [2, 10]: 16 ppm; Δb* ([3]; additive 0.05 %): 8.2"
"O=C(C=Cc1ccc(O)c(O)c1)Nc1ccc(O)cc1C(=O)O [Avenanthramide C, N-(3′-4′-dihydroxycinnamoyl)-5-hydroxyanthranilic acid]",,,,"stability (known, words) [4]: low stability"
O=C(O)CC(O)(CC(=O)O)C(=O)O [Citric acid],1 ppm,18 ppm,8.2,"Avenanthramide C End (ppm) [2, 9]: 1 ppm; Avenanthramide C Start (ppm) [2, 10]: 26 ppm; Δb* ([3]; additive 0.05 %): 6.5"
"O=C(CCc1ccc(O)cc1)Nc1ccccc1C(=O)O [Dihydroavenanthramide D, 2-{[3-(4-Hydroxyphenyl)propanoyl]amino}benzoic acid]",,,,"stability (known, words) [4]: more stable in comparison to Avenanthramide C; mast cell degranulation (mast cell): inhibits mast cell degranulation"
O=C([O-])CN(CCN(CC(=O)[O-])CC(=O)O)CC(=O)O.[Na+].[Na+] [Disodium EDTA],,,5.0,Avenanthramide C End (ppm) [2]: 9 ppm; Avenanthramide C Start (ppm) [2]: 16 ppm
CC(O)C(=O)O (stereo not shown) [Lactic acid],1 ppm,12 ppm,8.4,
O=C(O)CC(O)C(=O)O (stereo not shown) [Malic acid],1 ppm,11 ppm,8.3,"degradation inhibitory activity, ranking of single stabilizers [2]: most single effective alpha hydroxy acids"
O=P(O)(O)O[C@H]1[C@H](OP(=O)(O)O)[C@@H](OP(=O)(O)O)[C@H](OP(=O)(O)O)[C@@H](OP(=O)(O)O)[C@H]1OP(=O)(O)O [Phytic Acid],2 ppm,14 ppm,8.2,Degradation of Avenanthramide L (%) [5]: 20.0%
O=C(O)C(O)C(O)C(=O)O (stereo not shown) [Tartaric acid],1 ppm,11 ppm,9.4,"degradation inhibitory activity, ranking of single stabilizers [2]: most single effective alpha hydroxy acids"
O=C([O-])CC[C@@H](C(=O)[O-])N(CC(=O)[O-])CC(=O)[O-].[Na+].[Na+].[Na+].[Na+] [Tetrasodium Glutamate Diacetate],1 ppm,13 ppm,7.8,
"CC(C(=O)[O-])N(CC(=O)[O-])CC(=O)[O-].[Na+].[Na+].[Na+] (stereo not shown) [Trisodium MGDA, trisodium methylglycinediacetic acid]",,,,Degradation of Avenanthramide L (%) ([6]; additive 0.2 %): 20.0%
Trisodium Ethylenediamine Disuccinate,3 ppm,9 ppm,7.0,Degradation of Avenanthramide B (%) [1]: 7.4%; Degradation of Avenanthramide L (%) ([6]; additive 0.10 %): 0%; Degradation (%) of Avenanthramide C ([2]; additive 0.10 %): 66.7%

# Source: patent US20230131993A1 (priority 2020, published 2023)
